Data as given in patent US11352338B2, “Substituted isoindolinones” (BioTheryX, Inc., priority 2018, dated 2022).

Experiments:
[1] = molecular target: T1, PDE6D (Homo sapiens, UniProt O43924+Q96SW2); experiment: Western blot, degradation of cellular PDE6D in MV-4-11 cells; assay type: cell-based; settings: MV4-11; tested at 1 μM, MV-4-11 cells, 6-8 hours; read-out: % Degradation compared to DMSO, PDE6D
T1 construct: endogenous in cells; host or cells: MV-4-11
Method: (§1) MV-4-11 cells were grown in RPMI 1640 media supplemented with 10% fetal bovine serum, streptomycin and penicillin.
(§2) Cells were cultured at approximately 10^6 cells per mL and incubated in DMSO or the indicated compounds for 6-8 hours. Whole cell extracts were prepared using RIPA lysis buffer according to manufacturer's protocol (Pierce). Briefly, 4×10^6 cells were washed once in PBS, the cell pellets were resuspended in RIPA lysis buffer and allowed to incubate for 15 minutes on ice. Cells debris was removed by centrifugation and the cleared whole cell lysates were transferred to new tubes for further analysis.
(§3) For Western blot analysis, whole cell protein extracts were separated on 4-12% SDS-polyacrylamide gels, transferred to nitrocellulose and probed with the indicated primary antibodies. Membranes were subsequently washed and probed with the appropriate IRDye secondary antibodies (LI-COR). The signal was detected using the Odyssey Imaging System (LI-COR).
(§4) The following antibodies were used in these studies: Anti-PDE6D antibody: Santa Cruz Biotechnology, sc-166854 (Dallas, Tex.); Anti-Ikaros: Abcam, ab191394 (Cambridge, Mass.); anti-CK1α antibody: Abcam, ab108296 (Cambridge, Mass.); β-Actin (8H10D10) mouse monoclonal antibody: Cell Signaling Technology, #3700 (Danvers, Mass.); IRDye 680RD Goat anti-rabbit antibody: LI-COR, 926-68071 (Lincoln, Nebr.); and IRDye 800CW Goat anti-mouse antibody: LI-COR, 926-32210 (Lincoln, Nebr.).
(§5) The % degradation values are reported as “A”, “B”, “C”, or “D.” “A” represents a % degradation value of less than 25% (value<25%); “B” represents a % degradation value of equal to or more than 25% and less than 50% (25%≤value<50%); “C” represents a % degradation value of equal to or more than 50% and less than 75% (50%≤value<75%); and “D” represents a % degradation value of equal to or more than 75% (value≥75%). […] was used as control.

[2] = molecular target: T2, Ikaros (Homo sapiens, UniProt Q13422+Q96SW2); experiment: Western blot, degradation of cellular Ikaros in MV-4-11 cells; assay type: cell-based; settings: MV4-11, tested at 1 μM, 6-8 hours, read-out: % Degradation compared to DMSO, Ikaros
T2 construct: endogenous in cells; host or cells: MV-4-11
Method: as §1, §2, §3, §4, §5

[3] = tested on: IL-6; experiment: IL-6 inhibition, LPS-induced PBMCs or CD14+ monocytes, Meso Scale assay; assay type: cell-based; settings: LPS 100 ng/mL 18-24 h, read-out: % Inhibition compared to DMSO, IL-6; for inhibition at 1 µM: tested at 1 μM; for inhibition at 10 µM: tested at 10 μM
Method: (§6) Either frozen primary blood mononuclear cells (PBMCs) or frozen CD14+ mobilized peripheral blood monocytes were purchased from AllCells (PB003F, Normal Peripheral Blood MNC (Alameda, Calif.)). Cells were quick thawed, washed 1-time with RPMI-1640 (10% FBS/1% Pen-Strep) and plated in 96 well plates at 200,000 cells per well. Cells were pretreated with DMSO only or with the indicated compound for 1 h and then induced with 100 ng/mL lipopolysaccharide (LPS) for 18-24 h. The supernatant was analyzed for IL-1β, IL-6, and TNFα, using Meso Scale assay according to manufacturer's protocol. The negative control wells were treated with DMSO.
(§7) IL-1β, IL-6 and TNFα activities were tested at two different concentrations (1 μM and 10 μM) and the results are shown in Tables 2 and 3 respectively.

[4] = tested on: TNFα; experiment: TNFα inhibition, LPS-induced PBMCs or CD14+ monocytes, Meso Scale assay; assay type: cell-based; settings: LPS 100 ng/mL 18-24 h, read-out: % Inhibition compared to DMSO, TNFα; for inhibition at 1 µM: tested at 1 μM; for inhibition at 10 µM: tested at 10 μM
Method: as §6, §7

[5] = molecular target: T3, CK1α (Homo sapiens, UniProt P48729+Q96SW2); experiment: Western blot, degradation of cellular CK1α in MV-4-11 cells; assay type: cell-based; settings: MV4-11, tested at 1 μM, 6-8 hours, read-out: % Degradation compared to DMSO, CK1α
T3 construct: endogenous in cells; host or cells: MV-4-11
Method: as §1, §2, §3, §4, §5

[6] = tested on: IL-2; experiment: IL-2 inhibition assay, anti-CD3 (OKT3) stimulated PBMCs, Mesoscale IL-2 analysis; assay type: cell-based, human; settings: Homo sapiens, PBMC, PBMCs on anti-CD3, 24 h, fold difference from DMSO control, read-out: IL-2, % Induction compared to DMSO
Method: For the IL-2 analysis, 96 well plates were precoated with 1 μg/mL anti-human CD3 antibody (OKT3, eBioscience Inc., San Diego, Calif.). After washing with PBS, the indicated compound was added (50 μL/well) followed by PBMCs diluted at 3-4 million cells/mL (150 μL/well). Plates were incubated for 24 h and the supernatants collected for Mesoscale IL-2 analysis. IL-2 activity is measured as fold difference from the DMSO control. […]
In Table 4, the fold-change values are reported as “A”, “B”, “C”, or “D”. “A” represents a fold-change value of equal to or less than 0.5 (value≤0.5); “B” represents a fold-change value of more than 0.5 and equal to or less than 1 (0.5<value≤1); “C” represents a fold-change value of more than 1 and less than 1.5 (1<value<1.5); and “D” represents a fold-change value of equal to or more than 1.5 (value≥1.5).

[7] = tested on: IL-1β; experiment: IL-1β inhibition, LPS-induced PBMCs or CD14+ monocytes, Meso Scale assay; assay type: cell-based; settings: LPS 100 ng/mL 18-24 h, read-out: % Inhibition compared to DMSO, IL-1β; for inhibition at 1 µM: tested at 1 μM; for inhibition at 10 µM: tested at 10 μM
Method: as §6, §7

T2 sequence (Q13422 whole entry): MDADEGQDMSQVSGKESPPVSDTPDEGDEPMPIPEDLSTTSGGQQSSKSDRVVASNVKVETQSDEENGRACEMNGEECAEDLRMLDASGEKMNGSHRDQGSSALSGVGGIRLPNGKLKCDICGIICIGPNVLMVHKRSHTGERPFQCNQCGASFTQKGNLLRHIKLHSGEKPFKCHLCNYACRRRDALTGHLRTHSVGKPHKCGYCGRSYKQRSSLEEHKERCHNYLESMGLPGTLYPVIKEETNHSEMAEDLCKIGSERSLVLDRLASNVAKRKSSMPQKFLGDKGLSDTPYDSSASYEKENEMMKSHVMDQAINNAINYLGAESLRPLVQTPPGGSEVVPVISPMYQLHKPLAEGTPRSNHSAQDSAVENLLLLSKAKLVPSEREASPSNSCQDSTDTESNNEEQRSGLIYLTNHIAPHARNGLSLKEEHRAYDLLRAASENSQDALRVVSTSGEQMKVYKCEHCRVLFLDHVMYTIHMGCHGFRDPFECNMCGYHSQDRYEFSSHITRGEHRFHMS
T2 sequence (Q96SW2 whole entry): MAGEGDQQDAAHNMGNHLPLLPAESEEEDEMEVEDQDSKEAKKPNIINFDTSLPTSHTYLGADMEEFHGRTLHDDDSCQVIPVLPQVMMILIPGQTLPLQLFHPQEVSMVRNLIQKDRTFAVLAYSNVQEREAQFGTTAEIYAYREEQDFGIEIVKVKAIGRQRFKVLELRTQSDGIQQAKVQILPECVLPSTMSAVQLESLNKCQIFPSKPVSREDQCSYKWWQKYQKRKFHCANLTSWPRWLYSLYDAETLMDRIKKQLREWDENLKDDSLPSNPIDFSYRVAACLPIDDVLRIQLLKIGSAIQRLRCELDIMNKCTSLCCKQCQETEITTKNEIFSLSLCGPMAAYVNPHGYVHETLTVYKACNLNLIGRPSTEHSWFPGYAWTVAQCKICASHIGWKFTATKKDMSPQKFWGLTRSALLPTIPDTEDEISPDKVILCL
T2 sequence (Q16531 whole entry partner): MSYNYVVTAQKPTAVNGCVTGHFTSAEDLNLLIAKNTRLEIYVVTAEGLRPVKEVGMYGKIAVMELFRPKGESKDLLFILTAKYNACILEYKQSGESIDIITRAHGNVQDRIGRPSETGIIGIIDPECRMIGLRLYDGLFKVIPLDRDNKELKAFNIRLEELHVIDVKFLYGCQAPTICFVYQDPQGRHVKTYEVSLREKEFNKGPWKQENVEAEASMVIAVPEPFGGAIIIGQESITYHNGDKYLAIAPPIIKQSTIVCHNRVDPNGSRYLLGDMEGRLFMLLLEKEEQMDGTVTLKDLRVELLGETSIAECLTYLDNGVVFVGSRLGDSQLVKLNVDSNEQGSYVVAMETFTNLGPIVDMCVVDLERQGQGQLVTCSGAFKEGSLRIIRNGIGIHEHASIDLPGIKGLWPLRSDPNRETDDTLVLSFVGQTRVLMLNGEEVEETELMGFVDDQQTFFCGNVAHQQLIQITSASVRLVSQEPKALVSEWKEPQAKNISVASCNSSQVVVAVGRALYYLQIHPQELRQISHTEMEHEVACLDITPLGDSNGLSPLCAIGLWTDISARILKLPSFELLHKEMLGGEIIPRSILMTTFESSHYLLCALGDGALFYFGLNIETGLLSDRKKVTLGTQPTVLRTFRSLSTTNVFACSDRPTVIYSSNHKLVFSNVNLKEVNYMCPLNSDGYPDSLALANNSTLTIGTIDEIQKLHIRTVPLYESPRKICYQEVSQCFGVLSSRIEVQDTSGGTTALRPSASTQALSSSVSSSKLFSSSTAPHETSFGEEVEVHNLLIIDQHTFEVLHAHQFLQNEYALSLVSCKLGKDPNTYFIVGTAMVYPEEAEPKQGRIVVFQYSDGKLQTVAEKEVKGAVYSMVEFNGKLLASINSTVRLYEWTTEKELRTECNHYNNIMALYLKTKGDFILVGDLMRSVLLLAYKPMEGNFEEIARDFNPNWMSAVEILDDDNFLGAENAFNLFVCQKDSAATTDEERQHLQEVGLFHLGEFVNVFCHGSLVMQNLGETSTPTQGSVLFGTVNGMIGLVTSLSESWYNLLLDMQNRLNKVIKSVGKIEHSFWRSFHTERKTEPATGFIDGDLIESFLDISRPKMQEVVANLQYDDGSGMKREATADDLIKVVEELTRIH
T3 sequence (P48729 whole entry): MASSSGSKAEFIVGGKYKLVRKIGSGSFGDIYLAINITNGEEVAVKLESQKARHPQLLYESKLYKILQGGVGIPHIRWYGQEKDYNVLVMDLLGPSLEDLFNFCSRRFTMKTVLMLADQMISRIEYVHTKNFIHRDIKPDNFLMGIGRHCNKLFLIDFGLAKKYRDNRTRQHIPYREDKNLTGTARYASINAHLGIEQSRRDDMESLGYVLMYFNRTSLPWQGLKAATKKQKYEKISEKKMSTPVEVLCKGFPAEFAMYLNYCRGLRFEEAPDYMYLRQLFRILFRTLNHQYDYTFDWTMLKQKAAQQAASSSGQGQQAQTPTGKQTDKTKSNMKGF
T3 sequence (Q96SW2 whole entry): as the sequence (Q96SW2 whole entry) above
T3 sequence (Q16531 whole entry partner): as the sequence (Q16531 whole entry partner) above
T1 sequence (O43924 whole entry): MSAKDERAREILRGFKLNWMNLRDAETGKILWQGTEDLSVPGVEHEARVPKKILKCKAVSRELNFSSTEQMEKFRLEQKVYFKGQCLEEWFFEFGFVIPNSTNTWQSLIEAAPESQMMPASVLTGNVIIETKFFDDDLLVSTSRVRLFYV
T1 sequence (Q96SW2 whole entry): as the sequence (Q96SW2 whole entry) above
T1 sequence (Q16531 whole entry partner): as the sequence (Q16531 whole entry partner) above

Row | Dmax at 1 µM [1] [%] | Dmax at 1 µM [2] [%] | Dmax at 1 µM [5] [%] | Compound | inhibition at 1 µM [3] [%] | inhibition at 10 µM [3] [%] | inhibition at 1 µM [4] [%] | inhibition at 10 µM [4] [%] | fold induction at 1 µM [6] | fold induction at 10 µM [6] | inhibition at 1 µM [7] [%] | inhibition at 10 µM [7] [%]
1 | < 25 | 25 to 50 | < 25 | O=C1CCC(N2Cc3c(cc(C(F)(F)F)cc3C3CCCC3)C2=O)C(=O)N1 (stereo not shown) [Compound 29] | 10 to 25 | < 10 | < 10 | 10 to 25 | 0.5 to 1 | 0.5 to 1 | < 10 | < 10
2 | < 25 | 25 to 50 | < 25 | C[C@@H](c1cccc2c1CN(C1CCC(=O)NC1=O)C2=O)C(F)(F)F (stereo partly shown) [Compound 30] | < 10 | < 10 | < 10 | 10 to 25 | 1 to 1.5 | 0.5 to 1 | < 10 | < 10
3 | < 25 | 50 to 75 | 25 to 50 | C[C@H](c1cccc2c1CN(C1CCC(=O)NC1=O)C2=O)C(F)(F)F (stereo partly shown) [Compound 31] | < 10 | < 10 | < 10 | 10 to 25 | 0.5 to 1 | 0.5 to 1 | < 10 | < 10
4 | ≥ 75 | < 25 | ≥ 75 | CCC(C)c1cc(F)cc2c1CN(C1CCC(=O)NC1=O)C2=O (stereo not shown) [Compound 33, 3-(4-(sec-butyl)-6-fluoro-1-oxoisoindolin-2-yl)piperidine-2,6-dione] | < 10 |  | 25 to 50 |  | ≤ 0.5 |  | < 10 | 
5 | ≥ 75 | < 25 | 50 to 75 | CC(C)c1cc(F)cc2c1CN(C1CCC(=O)NC1=O)C2=O (stereo not shown) [Compound 34, 3-(6-fluoro-4-isopropyl-1-oxoisoindolin-2-yl)piperidine-2,6-dione] | < 10 |  | 25 to 50 |  | ≤ 0.5 |  | < 10 | 

Continued, compound first:

Row | Compound | Dmax at 1 µM [1] [%] | Dmax at 1 µM [2] [%] | Dmax at 1 µM [5] [%] | inhibition at 1 µM [3] [%] | inhibition at 10 µM [3] [%] | inhibition at 1 µM [4] [%] | inhibition at 10 µM [4] [%] | fold induction at 1 µM [6] | fold induction at 10 µM [6] | inhibition at 1 µM [7] [%] | inhibition at 10 µM [7] [%]
6 | O=C1CCC(N2Cc3c(cc(F)cc3C3CC4CCC3C4)C2=O)C(=O)N1 (stereo not shown) [Compound 25] | 50 to 75 | 25 to 50 | 25 to 50 | < 10 | < 10 | 10 to 25 | 10 to 25 | 1 to 1.5 | 0.5 to 1 | < 10 | 25 to 50
7 | CC1(C)CCCC1c1cc(F)cc2c1CN(C1CCC(=O)NC1=O)C2=O (stereo not shown) [Compound 26] | 50 to 75 | 25 to 50 | < 25 | < 10 | < 10 | < 10 | 10 to 25 | 0.5 to 1 | 0.5 to 1 | < 10 | < 10
8 | O=C1CCC(N2Cc3c(C4CCCC4)ccc(F)c3C2=O)C(=O)N1 (stereo not shown) [Compound 27] | < 25 | < 25 | < 25 | 10 to 25 | < 10 | 10 to 25 | 25 to 50 | 0.5 to 1 | 0.5 to 1 | < 10 | < 10
9 | O=C1CCC(N2Cc3c(cc(Cl)cc3C3CCCC3)C2=O)C(=O)N1 (stereo not shown) [Compound 28] | < 25 | < 25 | < 25 | < 10 | 10 to 25 | 10 to 25 | 10 to 25 | 1 to 1.5 | 0.5 to 1 | < 10 | < 10
